The target of this assay is T1, AsPC-1 HiBiT-KRASG12D (Homo sapiens, UniProt P01116, G12D).
T1 construct: insert the HiBiT tag onto the N-terminus of one or more of the endogenous KRAS alleles; endogenous in cells; host or cells: AsPC-1 (ATCC CRL-1682), CRISPR-Cas9 knock-in clone, one tagged allele
The experiment in a line: HiBiT degradation assay (G12D), AsPC-1 HiBiT-KRASG12D cells. The format is cell-based. The conditions noted are these: 24 hours treatment; for Dmax: ASPC1, AsPC-1 HiBiT-KRASG12D cells, maximum degradation observed; for DC50: AsPC-1 HiBiT-KRASG12D cells, HiBiT luminescence. In outline:
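Steps: treat HiBiT-KRASG12D AsPC-1 cells with compound for 24 hours; add alamar blue to 1× and incubate 4 hours to assess viability; wash with PBS; add HiBiT lytic detection reagent, incubate 45 minutes at room temperature; read luminescence. Viability fluorescence is normalized to DMSO wells.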
For orientation: HiBiT is a short tag that completes a luciferase, so light tracks the accessible tagged protein.

These results are taken from patent US20250206732A1, “COMPOUNDS AND METHODS FOR THE TARGETED DEGRADATION OF KRAS” (Arvinas Operations, Inc., priority 2022, published 2025).

What is called Dmax is the greatest extent of degradation seen. One may read the DC50 as the concentration giving 50% degradation. Higher therefore signals a less potent degrader.

A value given as a limit tells only on which side of the number the result lay.

T1 sequence (P01116 1-188 isoform P01116-2 G12D): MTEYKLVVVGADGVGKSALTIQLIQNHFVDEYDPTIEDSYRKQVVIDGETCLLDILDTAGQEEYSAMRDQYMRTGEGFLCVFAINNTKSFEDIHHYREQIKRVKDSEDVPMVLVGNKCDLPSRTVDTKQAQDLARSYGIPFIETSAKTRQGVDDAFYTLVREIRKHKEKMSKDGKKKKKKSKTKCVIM

With `CCc1cccc2cc(O)cc(-c3ncc4c(N5CC6CCC(C5)N6)nc(OC[C@@]56CCCN5[C@H](COC(=O)NCc5cc([C@@H](C(=O)N7C[C@H](O)C[C@H]7C(=O)N[C@@H](C)c7ccc(-c8scnc8C)cc7)C(C)C)on5)CC6)nc4c3F)c12` [Compound 100, [(3S,7aS)-7a-{[(4-{3,8-diazabicyclo[3.2.1]octan-3-yl}-7-(8-ethyl-3-hydroxynaphthalen-1-yl)-8-fluoropyrido[4,3-d]pyrimidin-2-yl)oxy]methyl}-hexahydro-1H-pyrrolizin-3-yl]methyl N-({5-[(2S)-1-[(2S,4R)-4-hydroxy-2-{[(1S)-1-[4-(4-methyl-1,3-thiazol-5-yl)phenyl]ethyl]carbamoyl}pyrrolidin-1-yl]-3-methyl-1-oxobutan-2-yl]-1,2-oxazol-3-yl}methyl) carbamate], the Dmax fell in the range of 20 to 60% and the DC50 fell in the range of 1 to 3 µM.

`CCc1cccc2cc(O)cc(-c3ncc4c(N5CC6CCC(C5)N6)nc(O[C@H](C)CN5CCC(COc6cc([C@H](C(=O)N7C[C@H](O)C[C@H]7C(=O)N[C@@H](C)c7ccc(-c8scnc8C)cc7)C(C)C)on6)CC5)nc4c3F)c12` [Compound 101, (2S,4R)-1-[(2R)-2-[3-({1-[(2R)-2-[(4-{3,8-diazabicyclo[3.2.1]octan-3-yl}-7-(8-ethyl-3-hydroxynaphthalen-1-yl)-8-fluoropyrido[4,3-d]pyrimidin-2-yl)oxy]propyl]piperidin-4-yl}methoxy)-1,2-oxazol-5-yl]-3-methylbutanoyl]-4-hydroxy-N-[(1S)-1-[4-(4-methyl-1,3-thiazol-5-yl)phenyl]ethyl]pyrrolidine-2-carboxamide] had a Dmax of 60 to 80% and a DC50 of less than 0.6 µM.

The compound `CCc1cccc2cc(O)cc(-c3ncc4c(N5CC6CCC(C5)N6)nc(OC[C@]56CCCN5[C@@H](COC(=O)NCc5cc([C@H](C(=O)N7C[C@H](O)C[C@H]7C(=O)N[C@@H](C)c7ccc(-c8scnc8C)cc7)C(C)C)on5)CC6)nc4c3F)c12` [Compound 102, [(3R,7aR)-7a-{[(4-{3,8-diazabicyclo[3.2.1]octan-3-yl}-7-(8-ethyl-3-hydroxynaphthalen-1-yl)-8-fluoropyrido[4,3-d]pyrimidin-2-yl)oxy]methyl}-hexahydro-1H-pyrrolizin-3-yl]methyl N-({5-[(2R)-1-[(2S,4R)-4-hydroxy-2-{[(1S)-1-[4-(4-methyl-1,3-thiazol-5-yl)phenyl]ethyl]carbamoyl}pyrrolidin-1-yl]-3-methyl-1-oxobutan-2-yl]-1,2-oxazol-3-yl}methyl) carbamate] had a Dmax of 80 to 100% and a DC50 of less than 0.6 µM.

With `CCc1cccc2cc(O)cc(-c3ncc4c(N5CC6CCC(C5)N6)nc(OC[C@]56CCCN5[C@@H](COC(=O)NCc5cc([C@@H](C(=O)N7C[C@H](O)C[C@H]7C(=O)N[C@@H](C)c7ccc(-c8scnc8C)cc7)C(C)C)on5)CC6)nc4c3F)c12` [Compound 103, [(3R,7aR)-7a-{[(4-{3,8-diazabicyclo[3.2.1]octan-3-yl}-7-(8-ethyl-3-hydroxynaphthalen-1-yl)-8-fluoropyrido[4,3-d]pyrimidin-2-yl)oxy]methyl}-hexahydro-1H-pyrrolizin-3-yl]methyl N-({5-[(2S)-1-[(2S,4R)-4-hydroxy-2-{[(1S)-1-[4-(4-methyl-1,3-thiazol-5-yl)phenyl]ethyl]carbamoyl}pyrrolidin-1-yl]-3-methyl-1-oxobutan-2-yl]-1,2-oxazol-3-yl}methyl) carbamate], the Dmax fell in the range of 20 to 60% and the DC50 was 1 to 3 µM.

Compound `CCc1cccc2cc(O)cc(-c3ncc4c(N5CC6CCC(C5)N6)nc(OC[C@@]56CCCN5[C@H](COC(=O)NCc5cc([C@H](C(=O)N7C[C@H](O)C[C@H]7C(=O)N[C@@H](C)c7ccc(-c8scnc8C)cc7)C(C)C)on5)CC6)nc4c3F)c12` [Compound 104, [(3S,7aS)-7a-{[(4-{3,8-diazabicyclo[3.2.1]octan-3-yl}-7-(8-ethyl-3-hydroxynaphthalen-1-yl)-8-fluoropyrido[4,3-d]pyrimidin-2-yl)oxy]methyl}-hexahydro-1H-pyrrolizin-3-yl]methyl N-({5-[(2R)-1-[(2S,4R)-4-hydroxy-2-{[(1S)-1-[4-(4-methyl-1,3-thiazol-5-yl)phenyl]ethyl]carbamoyl}pyrrolidin-1-yl]-3-methyl-1-oxobutan-2-yl]-1,2-oxazol-3-yl}methyl) carbamate] displayed a Dmax of 80 to 100% and a DC50 of less than 0.6 µM.

As to `CCc1cccc2cc(O)cc(-c3ncc4c(N5CC6CCC(C5)N6)nc(OC[C@]56CCCN5[C@H](COC(=O)N5CCN(c7cc([C@H](C(=O)N8C[C@H](O)C[C@H]8C(=O)N[C@@H](C)c8ccc(-c9scnc9C)cc8)C(C)C)on7)CC5)CC6)nc4c3F)c12` [Compound 105, [(3S,7aR)-7a-{[(4-{3,8-diazabicyclo[3.2.1]octan-3-yl}-7-(8-ethyl-3-hydroxynaphthalen-1-yl)-8-fluoropyrido[4,3-d]pyrimidin-2-yl)oxy]methyl}-hexahydro-1H-pyrrolizin-3-yl]methyl 4-{5-[(2R)-1-[(2S,4R)-4-hydroxy-2-{[(1S)-1-[4-(4-methyl-1,3-thiazol-5-yl)phenyl]ethyl]carbamoyl}pyrrolidin-1-yl]-3-methyl-1-oxobutan-2-yl]-1,2-oxazol-3-yl}piperazine-1-carboxylate], the Dmax lay in the range of 80 to 100% and the half-maximal degradation concentration (DC50) was less than 0.6 µM.

Turning to `CCc1cccc2cc(O)cc(-c3ncc4c(N5CC6CCC(C5)N6)nc(OC[C@@]56CCCN5[C@@H](COC(=O)N5CCN(c7cc([C@H](C(=O)N8C[C@H](O)C[C@H]8C(=O)N[C@@H](C)c8ccc(-c9scnc9C)cc8)C(C)C)on7)CC5)CC6)nc4c3F)c12` [Compound 106, [(3R,7aS)-7a-{[(4-{3,8-diazabicyclo[3.2.1]octan-3-yl}-7-(8-ethyl-3-hydroxynaphthalen-1-yl)-8-fluoropyrido[4,3-d]pyrimidin-2-yl)oxy]methyl}-hexahydro-1H-pyrrolizin-3-yl]methyl 4-{5-[(2R)-1-[(2S,4R)-4-hydroxy-2-{[(1S)-1-[4-(4-methyl-1,3-thiazol-5-yl)phenyl]ethyl]carbamoyl}pyrrolidin-1-yl]-3-methyl-1-oxobutan-2-yl]-1,2-oxazol-3-yl}piperazine-1-carboxylate], the Dmax was 80 to 100% and the DC50 is less than 0.6 µM.

For the compound `CCc1cccc2cc(O)cc(-c3ncc4c(N5CC6CCC(C5)N6)nc(OC[C@]56CCCN5[C@H](CN5CCC(COc7cc([C@H](C(=O)N8C[C@H](O)C[C@H]8C(=O)N[C@@H](C)c8ccc(-c9scnc9C)cc8)C(C)C)on7)CC5)CC6)nc4c3F)c12` [Compound 111, (2S,4R)-1-[(2R)-2-{3-[(1-{[(3S,7aR)-7a-{[(4-{3,8-diazabicyclo[3.2.1]octan-3-yl}-7-(8-ethyl-3-hydroxynaphthalen-1-yl)-8-fluoropyrido[4,3-d]pyrimidin-2-yl)oxy]methyl}-hexahydro-1H-pyrrolizin-3-yl]methyl}piperidin-4-yl)methoxy]-1,2-oxazol-5-yl}-3-methylbutanoyl]-4-hydroxy-N-[(1S)-1-[4-(4-methyl-1,3-thiazol-5-yl)phenyl]ethyl]pyrrolidine-2-carboxamide], the Dmax lay within 80 to 100% and the DC50 was less than 0.6 µM.

In turn, `CCc1cccc2cc(O)cc(-c3ncc4c(N5CC6CCC(C5)N6)nc(OC[C@@]56CCCN5[C@H](COC(=O)N5CC7(C5)CN(c5cc([C@H](C(=O)N8C[C@H](O)C[C@H]8C(=O)N[C@@H](C)c8ccc(-c9scnc9C)cc8)C(C)C)on5)C7)CC6)nc4c3F)c12` [Compound 112, [(3S,7aS)-7a-{[(4-{3,8-diazabicyclo[3.2.1]octan-3-yl}-7-(8-ethyl-3-hydroxynaphthalen-1-yl)-8-fluoropyrido[4,3-d]pyrimidin-2-yl)oxy]methyl}-hexahydro-1H-pyrrolizin-3-yl]methyl 6-{5-[(2R)-1-[(2S,4R)-4-hydroxy-2-{[(1S)-1-[4-(4-methyl-1,3-thiazol-5-yl)phenyl]ethyl]carbamoyl}pyrrolidin-1-yl]-3-methyl-1-oxobutan-2-yl]-1,2-oxazol-3-yl}-2,6-diazaspiro[3.3]heptane-2-carboxylate] showed a Dmax of 80 to 100% and a 50% degradation concentration (DC50) of less than 0.6 µM.

Regarding `CCc1cccc2cc(O)cc(-c3ncc4c(N5CC6CCC(C5)N6)nc(OC[C@@]56CCCN5[C@H](COC(=O)N5CC7(C5)CN(c5cc([C@@H](C(=O)N8C[C@H](O)C[C@H]8C(=O)N[C@@H](C)c8ccc(-c9scnc9C)cc8)C(C)C)on5)C7)CC6)nc4c3F)c12` [Compound 113, [(3S,7aS)-7a-{[(4-{3,8-diazabicyclo[3.2.1]octan-3-yl}-7-(8-ethyl-3-hydroxynaphthalen-1-yl)-8-fluoropyrido[4,3-d]pyrimidin-2-yl)oxy]methyl}-hexahydro-1H-pyrrolizin-3-yl]methyl 6-{5-[(2S)-1-[(2S,4R)-4-hydroxy-2-{[(1S)-1-[4-(4-methyl-1,3-thiazol-5-yl)phenyl]ethyl]carbamoyl}pyrrolidin-1-yl]-3-methyl-1-oxobutan-2-yl]-1,2-oxazol-3-yl}-2,6-diazaspiro[3.3]heptane-2-carboxylate], the Dmax lay within 20 to 60% and the DC50 is less than 0.6 µM.

`CCc1cccc2cc(O)cc(-c3ncc4c(N5CC6CCC(C5)N6)nc(OC[C@@]56CCCN5[C@H](COC(=O)N5CC(COc7cc([C@H](C(=O)N8C[C@H](O)C[C@H]8C(=O)N[C@@H](C)c8ccc(-c9scnc9C)cc8)C(C)C)on7)C5)CC6)nc4c3F)c12` [Compound 114, [(3S,7aS)-7a-{[(4-{3,8-diazabicyclo[3.2.1]octan-3-yl}-7-(8-ethyl-3-hydroxynaphthalen-1-yl)-8-fluoropyrido[4,3-d]pyrimidin-2-yl)oxy]methyl}-hexahydro-1H-pyrrolizin-3-yl]methyl 3-[({5-[(2R)-1-[(2S,4R)-4-hydroxy-2-{[(1S)-1-[4-(4-methyl-1,3-thiazol-5-yl)phenyl]ethyl]carbamoyl}pyrrolidin-1-yl]-3-methyl-1-oxobutan-2-yl]-1,2-oxazol-3-yl}oxy)methyl]azetidine-1-carboxylate] gave a Dmax of 80 to 100% and a DC50 of less than 0.6 µM.
